From patent US5104891A, “Cycloheptimidazolone compounds as angiotensin II antagonists for control of hypertension” (G. D. Searle & Co., priority 1989, dated 1992)

Key:
[1] = biological target: T1, angiotensin II (AII) contraction of rabbit aortic rings (Oryctolagus cuniculus, UniProt P34976); experiment: In vitro myotropic screening assay for AII antagonists in rabbit aortic rings; format: cell-based; conditions: pA2 determined according to Schild
T1 construct: The thoracic aorta was removed, cleaned of adherent fat and connective tissue and then cut into 3-mm ring segments; from tissue; host or cells: rabbit thoracic aorta rings, endothelium removed
T1 sequence (P34976 1-359): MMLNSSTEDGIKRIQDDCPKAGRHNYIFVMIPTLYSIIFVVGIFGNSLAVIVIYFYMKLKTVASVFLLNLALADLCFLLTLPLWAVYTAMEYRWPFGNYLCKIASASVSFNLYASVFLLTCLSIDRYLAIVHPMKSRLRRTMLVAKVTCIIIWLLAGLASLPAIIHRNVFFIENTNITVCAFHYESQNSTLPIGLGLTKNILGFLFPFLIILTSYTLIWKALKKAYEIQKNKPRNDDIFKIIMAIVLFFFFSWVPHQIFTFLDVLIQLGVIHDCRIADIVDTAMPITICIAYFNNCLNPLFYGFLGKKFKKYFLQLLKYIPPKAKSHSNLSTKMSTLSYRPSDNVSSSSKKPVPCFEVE
Experimental: The compounds of the invention were tested for agonist and antagonist activity in rabbit aortic rings. Male New Zealand white rabbits (2-2.5 kg) were sacrificed using an overdose of pentobarbital and exsanguinated via the carotid arteries. The thoracic aorta was removed, cleaned of adherent fat and connective tissue and then cut into 3-mm ring segments. The endothelium was removed from the rings by gently sliding a rolled-up piece of filter paper into the vessel lumen. The rings were then mounted in a water-jacketed tissue bath, maintained at 37° C., between a moveable and a fixed stainless steel wire, with the moveable end attached to an FT03 Grass transducer coupled to a Model 7D Grass Polygraph for recording isometric force responses. […] The preparations were equilibrated for one hour before approximately one gram of passive tension was placed on the rings. For the agonist assay, the rings were exposed to increasing concentrations of the test compound, at 30 minute intervals, during which time the tissue was washed three times with 20 ml of fresh Krebs solution. For the measurement of antagonistic activity, paired rings from the same rabbits were used; one was exposed to increasing concentrations of AII (at 30 minute intervals), and a second ring was exposed to increasing concentrations of AII in the presence of the test compound which was added five minutes prior to the addition of AII. The concentration response curves for AII in the presence of the antagonist were evaluated in terms of the percent of the maximal contraction of the control ring exposed only to AII. pD2 values for AII were calculated from the AII concentration response curves while pA2s were determined according to Schild.

[2] = biological target: angiotensin II receptor (rat uterine membranes); experiment: Angiotensin II binding assay (125I-angiotensin II, rat uterine membranes)
Experimental: Other chemicals were obtained from Sigma Chemical Co.
Rat uterine membranes were prepared from fresh tissue. All procedures were carried out at 4° C. Uteri were stripped of fat and homogenized using a Polytron for 25 sec in 20 volumes of ice-cold Dulbecco's phosphate-buffered saline pH 7.5 (Gibso Labs) containing 5 mM EDTA. The homogenate was centrifuged at 1500× g for 20 min., and the supernatant was recentrifuged at 100,000× g for 60 min. The pellet was resuspended in buffer consisting of 2 mM EDTA and 50 mM Tris-HCl, pH 7.5 to a final protein concentration of 4 mg/ml.
The reaction was initiated by the addition of 50 μg of membrane protein and the mixture was incubated at 25° C. for 30 min. The incubation was terminated with ice-cold 50 mM Tris-HCl; pH 7.5 and the mixture was filtered to separate membrane-bound labelled peptide from the free ligand. The incubation tube and filter were washed with ice-cold buffer. Filters were assayed for radioactivity in a Micromedic gamma counter. Nonspecific binding was defined as binding in the presence of 10 μM of unlabelled AII. Specific binding was calculated as total binding minus nonspecific binding. Binding data was analyzed by a nonlinear least-squares curve fitting program.

angiotensin II = conditions: literature; cited from earlier work
angiotensin II receptors = conditions: background; cited from earlier work
AII pressor response [3] = experiment: In vivo pressor screening assay for AII antagonists, intravenous administration; design: species or system rat (male Sprague Dawley); conditions: rat
Experimental: (§1) Male Sprague Dawley rats weighing […] were anesthetized with Inactin (100 mg/kg), a catheter was inserted into the trachea and the carotid artery and the jugular vein were cannulated. Arterial pressure was measured from the carotid artery cannula and continuously recorded (Gould, Cleveland, OH). The jugular vein cannula was used for injections of angiotensin II (AII), mecamylamine, atropine and the test compound. The animal was allowed to equilibrate for 30 minutes. Mecamylamine (3 mg/kg, 0.3 mg/kg) and atropine (400 μg/kg, 0.3 ml/kg) were then given iv to produce ganglion blockage. These compounds were administered every 90 minutes throughout the screening procedure. Angiotensin II was given in bolus doses ([…] in saline with 0.5% bovine serum albumin, 0.1 ml/kg) every 10 minutes consecutively three times or until the increase in arterial pressure produced was within 3 mm Hg for two consecutive injections. The last two AII injections are averaged and are referred to as the control response to AII. […] AII injections were then given 1, 5, 10, 20, 30, 45, 60, 75, 90, and 120 minutes after administration of the test compound and the response of arterial pressure monitored. […]

AII pressor response [4] = experiment: In vivo AII pressor assay, intraduodenal administration; design: species or system rat (male Sprague Dawley); conditions: rat, @ 100 mg
Experimental: as §1, with “injections.” for “injections. The last two AII injections are averaged and are referred to as the control response to AII.”
Compounds were tested for absorption from the gastrointestinal tract following intraduodenal administration. […] The response to AII was tested at the same time points following administration of the test compound except that the 1 minute reading was eliminated. […]

[5] = IC50, 125I-AII, rat uterine membranes, 25° C., 30 min

| IC50 [2, 5] | IC50 ([2]; meaning not explained) | Kb [1] | Compound | further results |
| --- | --- | --- | --- | --- |
| 4000 nM | 390 nM |  | CCCCc1nc2cc(C(=O)O)c(=O)c(COC)cc2n1Cc1ccc(-c2ccccc2C(=O)O)cc1 [Example 12, 4'-[[5(7)-carboxy-7(5)methoxymethyl-2-butyl-6(1H)-cycloheptimidazolon-1-yl]methyl]-[1,1'-biphenyl]-2-carboxylic acid] | pA2 [1]: 6.8 |
| 1400 nM | 349 nM | 1260 nM | CCCc1nc2ccc(=O)ccc2n1Cc1ccc(-c2ccccc2C(=O)O)cc1 [Example 5, 4'-[[2-propyl-6(1H)-cycloheptimidazolon-1-yl]methyl]-[1,1'-biphenyl]-2-carboxylic acid] |  |
|  |  |  | CCCCc1nc(Cl)c(CC(=O)O)n1Cc1ccccc1Cl [2-n-butyl-4-chloro-1-(2-chlorobenzyl) imidozole-s-acetic acid] | angiotensin II antagonist activity (angiotensin II): specific competitive angiotensin II antagonist activity |
| 7100 nM |  |  | CCCCc1nc2cc(O)c(=O)c(Cl)cc2n1Cc1ccc(-c2ccccc2C(=O)O)cc1 [Example 11, 4'-[[5(7)-hydroxy-7(5)chloro-2-butyl-6(1H)-cycloheptimidazolon-1-yl]methyl]-[1,1'-biphenyl]-2-carboxylic acid] | pA2 [1]: 6.4 |
|  |  |  | CNCC(=O)N[C@@H](CCCN=C(N)N)C(=O)N[C@H](C(=O)N[C@@H](Cc1ccc(O)cc1)C(=O)N[C@H](C(=O)N[C@@H](Cc1cnc[nH]1)C(=O)N1CCC[C@H]1C(=O)N[C@@H](C)C(=O)O)C(C)C)C(C)C [Saralasin] | residual agonist activity (angiotensin II receptors): significant residual agonist activity |
| 800 nM | 117 nM | 316 nM | CCCCc1nc2cc(-c3ccccc3)c(=O)c(-c3ccccc3)cc2n1Cc1ccc(-c2ccccc2C(=O)O)cc1 [Example 7, 4'-[[5,7-diphenyl-2-butyl-6(1H)-cycloheptimidazolon-1-yl]methyl]-[1,1'-biphenyl]-2-carboxylic acid] |  |
| 1400 nM | 24 nM | 1260 nM | CCCCc1nc2ccc(=O)ccc2n1Cc1ccc(-c2ccccc2C(=O)O)cc1 [Example 3, 4'-[[2-butyl-6(1H)-cycloheptimidazolon-1-yl]methyl]-[1,1'-biphenyl]-2-carboxylic acid] |  |
| 500 nM | 140 nM | 251 nM | CCCCc1nc2cc(C(=O)O)c(=O)c(C(=O)O)cc2n1Cc1ccc(-c2ccccc2C(=O)O)cc1 [Example 2, 4'-[[5,7-dicarboxy-2-butyl-6(1H)-cycloheptimidazolon-1-yl]methyl]-[1,1'-biphenyl]-2-carboxylic acid] | Antagonism of the AII pressor response, maximal inhibition, I.V. (AII pressor response [3]; @ 10 mg): 100% |
| 710 nM | 324 nM |  | CCCCCc1nc2cc(C)c(=O)c(C)cc2n1Cc1ccc(-c2ccccc2-c2nn[nH]n2)cc1 [Example 20, 1-{2'-[(tetrazol-5-yl)-biphenyl-4-yl]methyl}-2-pentyl-5,7-dimethyl-cycloheptimidazolone] |  |
| 2500 nM | 230 nM | 7940 nM | CCCCCc1nc2cc(C)c(=O)c(C)cc2n1Cc1ccc(-c2ccccc2C(=O)O)cc1 [Example 6, 4'-[[5,7-dimethyl-2-pentyl-6(1H)-cycloheptimidazolon-1-yl]methyl]-[1,1'-biphenyl]-2-carboxylic acid] |  |
|  |  |  | angiotensin III: heptapeptide {[des Asp^1 ]angiotensin II} | vasoconstrictor potency (angiotensin II receptors): less potent as a vasoconstrictor than angiotensin II |
| 2000 nM | 161 nM |  | CCCCc1nc2cc(C(C)C)c(=O)c(-c3ccccc3)cc2n1Cc1ccc(-c2ccccc2C(=O)O)cc1 [Example 10, 4'-[[5(7)-isopropyl-7(5)phenyl-2-butyl-6(1H)-cycloheptimidazolon-1-yl]methyl]-[1,1'-biphenyl]-2-carboxylic acid] | pA2 [1]: 5.6 |
| 2300 nM | 550 nM | 1000 nM | CCCc1nc2cc(C(=O)O)c(=O)c(C(=O)O)cc2n1Cc1ccc(-c2ccccc2C(=O)O)cc1 [Example 4, 4'-[[5,7-dicarboxy-2-propyl-6(1H)-cycloheptimidazolon-1-yl]methyl]-[1,1'-biphenyl]-2-carboxylic acid] |  |
| 1900 nM | 38 nM |  | CCCc1nc2ccc(=O)c(Cc3ccccc3)cc2n1Cc1ccc(-c2ccccc2C(=O)O)cc1 [Example 13, 4'-[[5(7)-hydrido-7(5)benzyl-2-propyl-6(1H)-cycloheptimidazolon-1-yl]methyl]-[1,1'-biphenyl]-2-carboxylic acid] | pA2 [1]: 5.5 |
|  |  |  | CCCCc1nc(Cl)c(CC(=O)O)n1Cc1ccccc1[N+](=O)[O-] [2-butyl-4-chloro-1-(2-nitrobenzyl)imiadzole-5-acetic acid] | angiotensin II antagonist activity (angiotensin II): specific competitive angiotensin II antagonist activity |
| 800 nM | 250 nM | 1000 nM | CCCCc1nc2cc(C)c(=O)c(C)cc2n1Cc1ccc(-c2ccccc2C(=O)O)cc1 [Example 1, 4'-[[5,7-dimethyl-2-butyl-6(1H)-cycloheptimidazolon-1-yl]methyl]-[1,1'-biphenyl]-2-carboxylic acid] | Antagonism of the AII pressor response, maximal inhibition, I.V. (AII pressor response [3]; @ 30 mg): 72%; Antagonism of the AII pressor response, maximal inhibition, ID (AII pressor response [4]): 72% |
|  |  |  | angiotensin II: octapeptide, the primary active species of the renin-angiotensin system (DRVYIHPF; Angiotensin-2; UniProt P01019 25-32, looked up) | vasoconstrictor potency (angiotensin II receptors): very potent vasoconstrictor agent |

| Compound | IC50 [2, 5] | IC50 ([2]; meaning not explained) | Kb [1] | further results |
| --- | --- | --- | --- | --- |
| 4'-[[5(7)-benzyl-7(5)hydrido-2-butyl-6(1H)-cycloheptimidazolon-1-yl]methyl]-[1,1'-biphenyl]-2-carboxylic acid [Example 14] | 2300 nM | 108 nM |  | pA2 [1]: 6.1 |
